Assay results: patent US12152016B2, “Aryl hydrocarbon receptor modulators and uses thereof” (Beth Israel Deaconess Medical Center, Inc., priority 2018, dated 2024)
“Also recorded” adds a separate entry of the source.

Assays:
[1] = Liver microsomal stability (LCMS/MS); type: in vitro ADME; settings: in the presence of liver microsomes
[2] = LC-MS/MS analysis of plasma after oral dosing of mice; type: in vivo, mouse; settings: LC-MS/MS of plasma samples
[3] = test system: AHR-dependent transcription of the CYP1A1 gene; test: CYP1A1 induction in mouse macrophages; type: cell-based
Protocol: (§1) Mouse macrophages were also used to test AHR-dependent transcription of the CYP1A1 gene in vivo. Finally, the activity of exemplary compounds of Formula (I) described herein was tested in the human […] cell line U937. The U937 cell line is derived from a patient with diffuse histiocytic lymphoma. Tables 2-4 summarize structure-activity relationship data collected for exemplary, non-limiting compounds of Formula (I) described herein.

[4] = Plasma stability (LCMS/MS); type: in vitro ADME; settings: incubated in plasma
[5] = within 8 h; cited from earlier work
AhR [6] = biological target: T1, AhR (Mus musculus, UniProt P30561); test: AhR nuclear translocation assay, mouse Hepa-1c1c7; type: cell-based; settings: mouse Hepa-1c1c7, 10 μM, 90 minutes
T1 construct: endogenous in cells; host or cells: Hepa-1c1c7 (mouse hepatoma cell line)
T1 sequence (P30561 10-805 limits assumed): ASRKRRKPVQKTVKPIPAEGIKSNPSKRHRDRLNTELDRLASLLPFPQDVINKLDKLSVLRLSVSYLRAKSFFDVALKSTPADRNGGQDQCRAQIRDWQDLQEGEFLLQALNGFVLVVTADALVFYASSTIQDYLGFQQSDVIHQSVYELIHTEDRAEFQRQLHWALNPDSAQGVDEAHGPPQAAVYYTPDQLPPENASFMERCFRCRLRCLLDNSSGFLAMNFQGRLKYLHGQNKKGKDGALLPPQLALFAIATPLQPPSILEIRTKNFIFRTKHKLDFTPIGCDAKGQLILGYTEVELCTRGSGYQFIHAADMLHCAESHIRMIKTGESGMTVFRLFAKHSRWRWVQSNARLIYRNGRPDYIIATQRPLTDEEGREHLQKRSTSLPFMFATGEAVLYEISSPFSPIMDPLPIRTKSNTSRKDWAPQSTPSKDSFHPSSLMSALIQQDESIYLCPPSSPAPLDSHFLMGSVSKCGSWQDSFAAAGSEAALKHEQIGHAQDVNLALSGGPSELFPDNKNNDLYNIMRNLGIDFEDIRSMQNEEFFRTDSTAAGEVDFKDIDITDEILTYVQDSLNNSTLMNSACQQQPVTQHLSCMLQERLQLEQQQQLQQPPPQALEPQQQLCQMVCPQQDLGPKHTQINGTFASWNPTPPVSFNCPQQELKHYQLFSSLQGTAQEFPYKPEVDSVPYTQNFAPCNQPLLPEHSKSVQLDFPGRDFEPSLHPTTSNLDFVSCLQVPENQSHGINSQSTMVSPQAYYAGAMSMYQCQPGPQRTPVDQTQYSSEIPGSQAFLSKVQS
T1 sequence (P53762 whole entry partner): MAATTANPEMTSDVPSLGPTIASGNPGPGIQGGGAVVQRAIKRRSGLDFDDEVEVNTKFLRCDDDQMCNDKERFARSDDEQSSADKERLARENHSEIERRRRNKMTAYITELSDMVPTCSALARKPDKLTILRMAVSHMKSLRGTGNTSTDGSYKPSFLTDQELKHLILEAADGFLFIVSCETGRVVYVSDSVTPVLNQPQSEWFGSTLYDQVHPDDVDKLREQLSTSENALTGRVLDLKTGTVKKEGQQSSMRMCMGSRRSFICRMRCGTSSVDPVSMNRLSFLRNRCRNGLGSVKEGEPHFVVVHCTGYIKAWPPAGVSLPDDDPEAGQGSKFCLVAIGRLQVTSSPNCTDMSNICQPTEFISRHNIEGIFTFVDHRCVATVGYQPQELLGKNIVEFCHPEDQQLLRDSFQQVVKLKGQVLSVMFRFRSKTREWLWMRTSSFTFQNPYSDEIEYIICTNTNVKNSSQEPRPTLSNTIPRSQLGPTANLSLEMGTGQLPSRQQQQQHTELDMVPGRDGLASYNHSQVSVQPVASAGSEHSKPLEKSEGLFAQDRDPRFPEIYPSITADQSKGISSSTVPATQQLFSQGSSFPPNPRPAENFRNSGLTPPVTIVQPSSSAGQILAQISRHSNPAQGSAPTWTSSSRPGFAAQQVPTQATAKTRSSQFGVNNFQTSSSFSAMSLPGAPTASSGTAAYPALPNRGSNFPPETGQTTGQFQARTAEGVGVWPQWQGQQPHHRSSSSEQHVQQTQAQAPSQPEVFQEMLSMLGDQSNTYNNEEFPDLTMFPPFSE
Protocol: (§2) Mouse Hepa-1c1c7 or human HepG2 cells were seeded in 8 well chamber slides followed by 24 hours incubation in tryptophan deficient media (HBSS with Ca^2+ and Mg^2+, 10% heat inactivated FBS, 1× non-essential amino acids, 1× sodium pyruvate, 4.5 g/L glucose). Cells were treated with vehicle control (DMSO) or 10 μM ITE, compound 108, or compound 109 for 90 minutes in tryptophan deficient media. Following treatment, cells were fixed in 4% formaldehyde and processed according to standard immunofluorescence staining protocol. Primary anti-AhR antibody was applied at 1:100 dilution (Enzo, BML-SA210) and Alexa488 conjugated secondary antibody was applied at 1:500 dilution (Cell Signaling, 4412S). Actin was stained using Alexa 568 conjugated Phalloidin (Fisher). Samples were mounted in anti-fade mounting medium supplemented with DAPI for nuclear staining and imaged with confocal microscopy (Leica SP5×MP, 63× oil lens).

[7] = biological target: T2, aryl hydrocarbon receptor (AHR) (Homo sapiens, UniProt P35869); test: XRE-driven luciferase reporter assay, human HepG2
T2 sequence (P35869 11-848): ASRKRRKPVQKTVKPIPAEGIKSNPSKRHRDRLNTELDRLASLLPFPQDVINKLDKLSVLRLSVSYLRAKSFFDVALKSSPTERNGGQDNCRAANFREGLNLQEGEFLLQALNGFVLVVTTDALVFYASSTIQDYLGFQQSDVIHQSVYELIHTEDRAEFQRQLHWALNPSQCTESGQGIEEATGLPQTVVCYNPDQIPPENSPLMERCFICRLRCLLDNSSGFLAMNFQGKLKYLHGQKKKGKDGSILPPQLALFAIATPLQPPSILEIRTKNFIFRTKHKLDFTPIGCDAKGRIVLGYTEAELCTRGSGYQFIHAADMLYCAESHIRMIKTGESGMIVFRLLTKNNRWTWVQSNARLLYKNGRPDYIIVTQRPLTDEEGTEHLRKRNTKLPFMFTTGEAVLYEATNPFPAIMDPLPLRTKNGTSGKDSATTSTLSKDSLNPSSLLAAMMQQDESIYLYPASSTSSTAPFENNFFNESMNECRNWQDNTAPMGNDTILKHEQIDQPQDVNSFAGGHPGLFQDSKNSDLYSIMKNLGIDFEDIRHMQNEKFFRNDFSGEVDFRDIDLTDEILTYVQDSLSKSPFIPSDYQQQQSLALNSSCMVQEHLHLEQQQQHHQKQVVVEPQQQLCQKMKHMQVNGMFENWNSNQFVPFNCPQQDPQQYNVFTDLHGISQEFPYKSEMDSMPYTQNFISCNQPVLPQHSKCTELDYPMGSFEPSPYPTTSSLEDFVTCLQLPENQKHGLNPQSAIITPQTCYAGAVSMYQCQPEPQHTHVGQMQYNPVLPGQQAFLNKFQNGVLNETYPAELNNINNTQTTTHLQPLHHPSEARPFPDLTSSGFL

[8] = biological target: T3, aryl hydrocarbon receptor (AHR) (Mus musculus, UniProt P30561); test: XRE-driven luciferase reporter assay, mouse Hepa1c1c7; type: cell-based
T3 construct: Transfection was performed with 150 ng XRE-luciferase plasmid (Promega); endogenous in cells; host or cells: Hepa-1c1c7 (mouse hepatoma cell line)
T3 sequence (P30561 10-805 limits assumed): as the sequence (P30561 10-805 limits assumed) above
T3 sequence (P53762 whole entry partner): as the sequence (P53762 whole entry partner) above
Protocol: Human HepG2 or mouse Hepa-1c1c7 cells were seeded in 96 well opaque plates at 75,000 cells per well in full medium (DMEM+10% FBS) for 24 hours. Transfection was performed with 150 ng XRE-luciferase plasmid (Promega) with 4:1 Fugene to DNA ratio for 18 hours in Opti-MEM. Transfected cells were treated with AhR agonist (10^−5-10^−12) for 4.5 h in full medium. Cells were lysed and luciferase was activated using the Luciferase Assay System (Promega). Luminescence signals were measured with a FluroStar Omega microplate reader. Luminescence signals of compound treated groups were normalized to vehicle (DMSO) treated control and plotted as concentration dependent fold changes.

AhR [9] = biological target: T4, AhR (Homo sapiens, UniProt P35869); test: AhR nuclear translocation assay, human HepG2; type: cell-based; settings: human HepG2, 10 μM, 90 minutes
T4 construct: endogenous in cells; host or cells: HepG2 (human liver cancer cell line)
T4 sequence (P35869 11-848): T2 sequence (P35869 11-848)
Protocol: as §2

[10] = test system: AHR-dependent transcription of the CYP1A1 gene; test: CYP1A1 induction in human U937 cells; type: cell-based; settings: Human U937, 1 μM
Protocol: as §1

liver microsomal stability [1] | CYP1A1 induction (% of ITE ± SEM) ([3]; 50 nM) | CYP1A1 induction (% of ITE ± SEM) ([3]; 5 μM) | plasma stability [4] | XRE luciferase Emax (fold) ([7]; Human HepG2, fold over vehicle) | EC50 ([7]; XRE luciferase EC50, Human HepG2, least square curve fitting, >10,000 = does not reach 50% of Emax of ITE at 10 μM (highest concentration tested)) [nM] | EC50 [8] [nM] | XRE luciferase Emax (fold) [8] [fold] | CYP1A1 induction (% of ITE ± SEM) [10] | SMILES | species found in plasma after oral dosing [2] | ITE inactivated in cell culture [5] [%] | AhR nuclear translocation (AhR [6]) | AhR nuclear translocation (AhR [9])
highly unstable | 143 ± 90 % of ITE | 88 ± 38 % of ITE | highly unstable | – | – | – | – | – | COC(=O)c1cccc(C(=O)c2c[nH]c3ccccc23)n1 [Compound 10, methyl 6-(1H-indole-3-carbonyl)pyridine-2-carboxylate] | only revealed the presence of the much less active carboxylic acid derivative | – | – | –
highly unstable | 100 % of ITE | 100 % of ITE | highly unstable | 63 | 5.3 | 30 | 79 | 100 % of ITE | COC(=O)c1csc(C(=O)c2c[nH]c3ccccc23)n1 [ITE, 2-(1H-indol-3-ylcarbonyl)-4-thiazolecarboxylic acid methyl ester, reference compound] | – | 75 | localized in the nucleus; also recorded: rapid nuclear enrichment of AhR | localized in the nucleus; also recorded: rapid nuclear enrichment of AhR
